Measurements: US20250276069A1, “HETEROBIFUNCTIONAL COMPOSITIONS FOR TARGETED PROTEIN DEGRADATION AND METHODS FOR THEIR USE” (THE SCRIPPS RESEARCH INSTITUTE, priority 2021, published 2025)

Test system: HCC1806 cells
Test: TMT MS quantitative proteomics of live cells treated with FragTAC probes (HCC1806)
Type: cell-based, Homo Sapiens
Conditions: value = downregulated protein
Protocol: Mammalian cell culture: MDA-MB-231 cells (ATCC) were maintained in DMEM supplemented with 10% (v/v) fetal bovine serum (FBS), 1% (v/v) penicillin/streptomycin, and 2 mM glutamine. HCC1806 cells (ATCC) were maintained in RPMI supplemented with 10% (v/v) fetal bovine serum (FBS), 1% (v/v) penicillin/streptomycin, and 2 mM glutamine. All cell lines were grown at 37° C. in a humidified 5% CO2 atmosphere.
Treatment of Live Cells with FragTAC Probes: Separate 6 cm (for gel-based analyses) or 10 cm (for MS-based analyses) dishes of MDA-MB-231 cells or HCC1806 cells were grown to 80-95% confluency with DMEM media and RPMI media respectively. The growth medium was aspirated, and the cells were washed with Dulbecco's phosphate buffered saline (DPBS). The cells were incubated with serum-free media containing fragment probes (200 μM) or control probes (200 μM) for 6 hours at 37° C. under a 5% CO2 atmosphere. The cultures were scraped, washed with cold DPBS, and collected into 15 mL centrifuge tubes, then transferred to 1.5 mL Eppendorf tubes. The cell suspensions were centrifuged (1,400 g, 3 min) and the pellets were stored at −80° C. until the next stage of processing.
Sample preparation for TMT MS Quantitative Proteomics: For treatment of cell lysates, cells were collected, cell pellets were resuspended in 100 μL DPBS containing 1× Halt protease inhibitor cocktail, and lysed by sonication (15 ms on, 40 ms off, 15% amplitude, 1 s total). Protein concentrations were normalized (2 mg/mL in 100 μL with cold DPBS) using the Lowry Protein Assay (Pierce). Urea (48 mg) was weighed for each sample in 2 mL LoBind Eppendorf tubes and cell lysates (100 μL=200 μg) were added (final urea concentration=8 M). Pellets were resuspended in a freshly prepared 1:1 solution (50 μL) TCEP (200 mM in DPBS) and K2CO3 (600 mM in DPBS) and incubated (30 min, 37° C.) while shaking. After reaction, a solution of freshly prepared iodoacetamide (70 μL, 400 mM in DPBS) was added and incubated for 30 min at room temperature while protected from light. After reaction, 1.8 mL of cold 3:1:2 MeOH/CHCl3/H2O solution was added to each tube, and the samples were centrifuged (10,000×g, 10 min, 4° C.), forming a disc. The supernatant was carefully removed, MeOH (600 μL) was added, samples were centrifuged as previously described and the supernatant was removed. Cell pellets were resuspended in TEAB (160 μL, 100 mM, pH 8.5) and sonicated as described previously. Endoproteinase LysC (20 μL, ½ vial, 10 μg dissolved in 220 μL of 100 mM TEAB pH 8.5) was added to each and incubated at 37° C. for 2 h with shaking. Sequencing-grade modified porcine trypsin (20 μL, 1 vial, 20 μg dissolved in 220 μL of 100 mM TEAB pH 8.5), a solution of Protease Max (2 μL, 1% (w/v) in 100 mM TEAB pH 8.5) and a solution of CaCl2) (2 μL, 100 mM) were added to the samples and incubated at 37° C. overnight (14 h) with shaking. The digest was separated by centrifugation (12,000×g, 10 min, 4° C.). Peptide concentration was determined using Pierce Quantitative Fluorometric Peptide Assay Kit (Thermo Fisher Scientific, 23290) according to manufacturer's instructions. MS-grade acetonitrile (12.5 μL) was added to each and samples were labeled with respective TMT 10 plex isotope (8 μL, 20 μg/μL) for 1 h with occasional vortexing at RT. To quench, hydroxylamine (3 μL, 5% v/v) was added to each sample, vortexed, and incubated for 15 min at RT. Formic acid (5 μL) was added to each tube to acidify and the samples were dried under vacuum centrifugation. The samples were combined by redissolving the contents of one tube in a solution of trifluoroacetic acid (TFA, 400 μL, 0.1% in water) and transferred into each sample until all samples were redissolved. The stepwise process was repeated with formic acid (Buffer A, 200 μL, 0.1% in water) for a final volume of 600 μL. […]

SMILES | Proteins targeted (downregulated) by FragTAC probe (protein with 2 unique peptides or more, depleted 2-fold or more relative to DMSO control (P value <0.05)) | Proteins targeted (downregulated) by FragTAC probe (TMT proteomics, targets with 2 unique peptides or more and depleted 2-fold or more relative to DMSO control (P value <0.05))
Cc1ncsc1-c1ccc(CNC(=O)[C@@H]2C[C@@H](O)CN2C(=O)[C@@H](NC(=O)CCOCCOCCC(=O)N2CCN(C(c3ccccc3)c3ccccc3)CC2)C(C)(C)C)cc1 [LPC020, (2S,4R)-1-((S)-2-(3-(2-(3-(4-benzhydrylpiperazin-1-yl)-3-oxopropoxy)ethoxy)propanamido)-3,3-dimethylbutanoyl)-4-hydroxy-N-(4-(4-methylthiazol-5-yl)benzyl)pyrrolidine-2-carboxamide] | YIPF3 and ZC3H13 and ZC3HC1 and ZFR and ZMYM4 and ZNF638 and ZNF830 | –
Cc1ncsc1-c1ccc(CNC(=O)[C@@H]2C[C@@H](O)CN2C(=O)[C@@H](NC(=O)CCOCCOCCOCCC(=O)NCCc2cn(Cc3ccccc3)c3ccccc23)C(C)(C)C)cc1 [IF-063, (2S,4R)-1-((S)-19-(1-benzyl-1H-indol-3-yl)-2-(tert-butyl)-4,16-dioxo-7,10,13-trioxa-3,17-diazanonadecanoyl)-4-hydroxy-N-(4-(4-methylthiazol-5-yl)benzyl)pyrrolidine-2-carboxamide] | – | TMBIM6
